Results reported in PubChem BioAssay (NCI).
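How tested: cells in 96-well plates exposed to compound for 48 hours at five concentrations. TGI: concentration producing complete growth inhibition.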

Assays:
Experiment in all cases: growth of human tumour cells (NCI), 48 h
SK-MEL-5 melanoma = tested on: SK-MEL-5 melanoma
UACC-257 melanoma = tested on: UACC-257 melanoma
SF-295 CNS = tested on: SF-295 CNS
SF-539 CNS = tested on: SF-539 CNS
RXF 393 renal = tested on: RXF 393 renal
IGROV1 ovarian = tested on: IGROV1 ovarian
SW-620 colon = tested on: SW-620 colon
HOP-62 NSCLC = tested on: HOP-62 NSCLC
MCF7 breast = tested on: MCF7 breast
DU-145 prostate = tested on: DU-145 prostate

| Compound | TGI (SK-MEL-5 melanoma) [µM] | TGI (UACC-257 melanoma) [µM] | TGI (SF-295 CNS) [µM] | TGI (SF-539 CNS) [µM] | TGI (RXF 393 renal) [µM] | TGI (IGROV1 ovarian) [µM] | TGI (SW-620 colon) [µM] | TGI (HOP-62 NSCLC) [µM] | TGI (MCF7 breast) [µM] | TGI (DU-145 prostate) [µM] |
| --- | --- | --- | --- | --- | --- | --- | --- | --- | --- | --- |
| CCOP(=O)(OCC)C1C(CO)OC(n2ccc(=O)[nH]c2=O)C1O (centres undefined) | > 100 | > 100 | > 100 | > 100 | > 100 | > 100 | > 100 | > 100 |  |  |
| CC(C)(C)N=c1n(C(C)(C)C)oc(=O)n1C(C)(C)C | > 100 | > 100 | > 100 | > 100 | > 100 | > 100 | > 100 | > 100 | > 100 |  |
| O=C(CN1CCCCC1)CC(O)(C(F)(F)F)C(F)(F)F | > 100 | > 100 | > 100 | > 100 | > 100 | > 100 | > 100 |  | > 100 | > 100 |
| O=C1CCC(=Nc2ccc(Cl)cc2)N1C(=O)COc1ccc(OCC(=O)N2C(=O)CSC2=Nc2ccc(Cl)cc2)cc1 | > 100 | > 100 | > 100 |  | > 100 | > 100 | > 100 | > 100 | > 100 | > 100 |
| CN(C)c1ccc(-c2c(C#N)c(S)n(NS(=O)(=O)c3ccccc3)c(=O)c2C#N)cc1 | 72.2 | > 100 | > 100 | 53.4 | > 100 | 73.5 | > 100 |  | > 100 | > 100 |
| Cc1nn(C(=O)Cc2ccccc2)c2c1C(c1ccccc1O)SC(N)=N2 (centres undefined) | > 100 | > 100 | > 100 | > 100 |  | > 100 | > 100 | > 100 | > 100 | > 100 |
| CC1(C)O[C@@H]2COC(=O)[C@@H]2O1 | > 100 | > 100 | > 100 | > 100 | > 100 | > 100 | > 100 |  | > 100 | > 100 |
| O=C(O)C1CC(c2ccc(F)cc2)=Nc2ccc(F)cc2S1 (centres undefined) | > 100 | > 100 | > 100 | > 100 | > 100 | > 100 | > 100 |  | > 100 | > 100 |
| CN(C)NC(=S)Nc1ccccc1Br | > 100 | > 100 | > 100 | > 100 | > 100 | > 100 | > 100 |  | > 100 | > 100 |
| COc1ccc(CC(CO)NC(=O)OCc2ccccc2)cc1Oc1ccc(CC(CO)NC(=O)OCc2ccccc2)cc1 (centres undefined) | > 100 | 61.4 | 24.6 |  |  | 29.3 | > 100 | 31.8 |  | 46 |
| Cc1cn2c(/C=C3/C(=O)Nc4cccc(Cl)c43)c(Cl)nc2s1 |  | > 100 | > 100 |  | 87 | > 100 | > 100 | 39.1 | > 100 | > 100 |
| CC(=O)N/N=C1/NN(C(C)=O)C2(S1)C(=O)Nc1ccc(Br)cc12 (centres undefined) | > 100 | > 100 | > 100 | > 100 | > 100 | > 100 |  | > 100 | > 100 | > 100 |
